# Test results reported in patent EP4592286A1, “MACROCYCLIC NITROGEN-CONTAINING CROWN ETHER COMPOUND AND USE THEREOF AS PROTEIN KINASE INHIBITOR” (Artivila Biopharma, priority 2022, dated 2024).
# How the values were obtained:
# JAK1 [1] = target: T1, JAK1 (Homo sapiens, UniProt P23458); test: experiment of inhibiting kinase activity (Caliper mobility shift assay), JAK1; format: biochemical; details: for inhibition at 0.1 µM: at 100 nM; for IC50: kinase activity assay, Table 3
# Procedure, shortened: (§1)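 Compounds were tested at 10 nM and 100 nM, or as 10-point 3-fold dilutions from 10 µM, in replicate wells. Kinase was preincubated with compound for 10 min at room temperature before ATP/substrate addition. Substrate conversion was read by mobility shift, and IC50 was fitted by a variable-slope log(inhibitor) vs response model.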
# JAK1 [2] = target: T1, JAK1; test: JAKs cell activity test: detection of pSTAT6 in THP1 cells induced by JAK1_IL-4; format: cell-based; details: pSTAT6, IL-4-induced THP1 cells
# Experimental: Detection of pSTAT6 in THP1 cells induced by JAK1_IL-4
# (§2) THP1 cells were collected by centrifugation, resuspended with 1×HBSS, counted and diluted to a certain cell density. They were inoculated in a 384-well plate and cultured in a saturated humidity incubator with 37 °C and 5% CO2. The compound (DMSO final volume of 0.3%) was added to THP1 cells (10 doses in duplicates) and cultured in a saturated humidity incubator with 37 °C and 5% CO2. hIL-4 was added to stimulate cells and cultured in a saturated humidity incubator with 37 °C and 5% CO2. The lysis solution was added and incubated at room temperature. According to the instructions of AlphaLISA SureFire Ultra p-STAT6 detection kit, the lysis solution was transferred to pSTAT6 detection system, and the ALPHA signal was read by PE Envision microplate reader. The inhibition rate Inh%=((DMSO-sample)/(DMSO-background))×100 was calculated. IC50 was obtained by fitting with GraphPad Prism non-linear regression equation, and y=Bottom+(Top-Bottom)/(1+10^((LogIC50-x)×hillslope)), where x was the concentration of the compound and y was the inhibition rate.
# LRRK2 = LRRK2 (Homo sapiens, UniProt Q5S007); test: experiment of inhibiting kinase activity, LRRK2; format: biochemical; details: for inhibition at 0.1 µM: at 100 nM; for IC50: kinase activity assay, Table 3
# Experimental: (§3) The inhibition rates of tested compounds on JAK1, JAK2, JAK3, TYK2, CDK7, CDK9, EGFR (T790M) and LRRK2 kinases were measured. The test concentrations of the compounds were 10 nM and 100 nM, and the detection was performed by replicate wells. Alternatively, compounds were 3-fold serial diluted from 10 µM for 10 concentrations in replicate wells.
# JAK2 = JAK2 (Homo sapiens, UniProt O60674); test: experiment of inhibiting kinase activity (Caliper mobility shift assay), JAK2; format: biochemical; details: for inhibition at 0.01 µM: at 10 nM; for inhibition at 0.01 µM / inhibition at 0.1 µM: read-out: inhibition rate JAK2; for inhibition at 0.1 µM: at 100 nM; for IC50: kinase activity assay, Table 3
# Procedure, shortened: as §1
# wild-type LRRK2 = target: T2, wild-type LRRK2 (Homo sapiens, UniProt Q5S007); test: detection of phosphorylated S935 in HEK293T overexpressing wild-type LRRK2; format: cell-based; details: pS935, HEK293T overexpressing wild-type LRRK2, 1.5 hours
# T2 construct: pCMV-flag-WT LRRK2 (full-length); expressed in transfected cells; host or cells: HEK293T
# Experimental: (§4) Detection of phosphorylated S935 in HEK293T Overexpressing full-length LRRK2 (G2019S) or wild-type LRRK2
# (§5) HEK293T cells was inoculated into a 6-well plate and cultured overnight. The next day, they were transiently transfected with plasmid pcDNA5-FRT/TO-FLAG LRRK2 (G2019S, full-length) or pCMV-flag-WT LRRK2 (full-length) by using Superfect transfection reagent and cultured at 37°C and 5% CO2 for 20-24 hours. The next day, cells were collected, resuspended at a density of 0.48×10^6 cells/ml, and inoculated into a 384-well plate at 50 microliters/well. Compound or DMSO solutions (volume ratio of 0.5%) were added by Tecan, and cultured at 37°C and 5% CO2 for 1.5 hours. After 1.5 hours, the supernatant was discarded, 50 microliters of 8% PFA were added in each well to fix the cells, and the cells were incubated at room temperature for 1 hour. The plate was washed with EL406 plate washer for three times, with 115 microliters of PBST per well, and the culture plate was patted to dryness. The cells were blocked with 50 microliters/well of Licor Odyssey blocking solution (0.1% Tween 20) at room temperature for 1.5 hours. The blocking solution was discarded and the culture plate was patted to dryness. 20 microliters of primary antibody (1:1000(pS935), diluted with Licor Odyssey buffer (0.1% Tween20)) was added into each well, and incubated at 4 °C overnight. The next day, the first antibody was discarded and washing was performed with PBST for five times. 20 microliters of secondary antibody (diluted with Licor Odyssey buffer (0.1% Tween20) at 1:500 and stained with DNA at 1:2000) were added into each well, and incubated at room temperature for 1 hour. The second antibody was discarded, and washing was performed for three times with PBST. The fluorescence intensity was measured by LICOR Odyssey imager Scanner, and the data was analyzed.
# TYK2 = TYK2 (Homo sapiens, UniProt P29597); test: experiment of inhibiting kinase activity, TYK2; format: biochemical; details: at 10 nM; read-out: inhibition rate TYK2
# Experimental: as §3
# LRRK2 (G2019S) = target: T3, LRRK2 (G2019S) (Homo sapiens, UniProt Q5S007, G2019S); test: detection of phosphorylated S935 in HEK293T overexpressing full-length LRRK2 (G2019S); format: cell-based; details: pS935, HEK293T overexpressing LRRK2 (G2019S), 1.5 hours
# T3 construct: pcDNA5-FRT/TO-FLAG LRRK2 (G2019S, full-length); expressed in transfected cells; host or cells: HEK293T
# Experimental: as §4, §5
# JAK3 [3] = target: T4, JAK3 (Homo sapiens, UniProt P52333); test: experiment of inhibiting kinase activity (Caliper mobility shift assay), JAK3; format: biochemical; details: at 10 nM; read-out: inhibition rate JAK3
# T4 sequence (P52333 1-1124): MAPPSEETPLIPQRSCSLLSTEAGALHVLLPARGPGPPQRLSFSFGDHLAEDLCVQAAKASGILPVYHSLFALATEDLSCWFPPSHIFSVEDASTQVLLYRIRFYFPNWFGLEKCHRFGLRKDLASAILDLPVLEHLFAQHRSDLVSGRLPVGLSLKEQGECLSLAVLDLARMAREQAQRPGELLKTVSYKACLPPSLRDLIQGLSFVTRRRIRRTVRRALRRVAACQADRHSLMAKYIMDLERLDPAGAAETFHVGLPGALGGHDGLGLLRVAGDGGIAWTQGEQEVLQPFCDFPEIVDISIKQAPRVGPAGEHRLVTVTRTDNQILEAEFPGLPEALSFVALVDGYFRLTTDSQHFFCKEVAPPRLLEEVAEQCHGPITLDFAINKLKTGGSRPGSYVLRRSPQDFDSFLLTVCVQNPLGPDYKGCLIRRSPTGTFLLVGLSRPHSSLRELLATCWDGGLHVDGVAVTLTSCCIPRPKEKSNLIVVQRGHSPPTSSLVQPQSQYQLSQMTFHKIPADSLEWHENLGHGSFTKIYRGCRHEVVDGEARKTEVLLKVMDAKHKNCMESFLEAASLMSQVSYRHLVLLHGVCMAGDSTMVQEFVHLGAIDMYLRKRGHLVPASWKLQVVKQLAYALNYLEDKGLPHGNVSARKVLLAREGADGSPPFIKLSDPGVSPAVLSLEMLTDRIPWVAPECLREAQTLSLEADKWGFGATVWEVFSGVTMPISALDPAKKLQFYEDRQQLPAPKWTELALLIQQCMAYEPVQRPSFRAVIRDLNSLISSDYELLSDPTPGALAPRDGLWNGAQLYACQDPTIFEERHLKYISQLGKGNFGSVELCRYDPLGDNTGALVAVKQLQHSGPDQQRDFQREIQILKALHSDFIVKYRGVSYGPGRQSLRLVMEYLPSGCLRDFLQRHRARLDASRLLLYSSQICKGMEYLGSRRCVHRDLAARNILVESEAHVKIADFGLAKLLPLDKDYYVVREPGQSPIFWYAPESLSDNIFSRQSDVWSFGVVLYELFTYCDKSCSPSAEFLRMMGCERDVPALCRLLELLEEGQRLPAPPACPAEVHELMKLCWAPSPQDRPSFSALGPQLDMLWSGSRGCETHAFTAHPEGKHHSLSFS
# Procedure, shortened: as §1
# JAK3 [4] = target: T5, JAK3 (Mus musculus, UniProt Q62137); test: JAKs cell activity test: JAK3_pSTAT5 in IL-2-induced CTLL-2 cells; format: cell-based; details: pSTAT5, IL-2-induced CTLL-2 cells
# T5 construct: endogenous in cells; host or cells: CTLL-2
# T5 sequence (Q62137 1-1100): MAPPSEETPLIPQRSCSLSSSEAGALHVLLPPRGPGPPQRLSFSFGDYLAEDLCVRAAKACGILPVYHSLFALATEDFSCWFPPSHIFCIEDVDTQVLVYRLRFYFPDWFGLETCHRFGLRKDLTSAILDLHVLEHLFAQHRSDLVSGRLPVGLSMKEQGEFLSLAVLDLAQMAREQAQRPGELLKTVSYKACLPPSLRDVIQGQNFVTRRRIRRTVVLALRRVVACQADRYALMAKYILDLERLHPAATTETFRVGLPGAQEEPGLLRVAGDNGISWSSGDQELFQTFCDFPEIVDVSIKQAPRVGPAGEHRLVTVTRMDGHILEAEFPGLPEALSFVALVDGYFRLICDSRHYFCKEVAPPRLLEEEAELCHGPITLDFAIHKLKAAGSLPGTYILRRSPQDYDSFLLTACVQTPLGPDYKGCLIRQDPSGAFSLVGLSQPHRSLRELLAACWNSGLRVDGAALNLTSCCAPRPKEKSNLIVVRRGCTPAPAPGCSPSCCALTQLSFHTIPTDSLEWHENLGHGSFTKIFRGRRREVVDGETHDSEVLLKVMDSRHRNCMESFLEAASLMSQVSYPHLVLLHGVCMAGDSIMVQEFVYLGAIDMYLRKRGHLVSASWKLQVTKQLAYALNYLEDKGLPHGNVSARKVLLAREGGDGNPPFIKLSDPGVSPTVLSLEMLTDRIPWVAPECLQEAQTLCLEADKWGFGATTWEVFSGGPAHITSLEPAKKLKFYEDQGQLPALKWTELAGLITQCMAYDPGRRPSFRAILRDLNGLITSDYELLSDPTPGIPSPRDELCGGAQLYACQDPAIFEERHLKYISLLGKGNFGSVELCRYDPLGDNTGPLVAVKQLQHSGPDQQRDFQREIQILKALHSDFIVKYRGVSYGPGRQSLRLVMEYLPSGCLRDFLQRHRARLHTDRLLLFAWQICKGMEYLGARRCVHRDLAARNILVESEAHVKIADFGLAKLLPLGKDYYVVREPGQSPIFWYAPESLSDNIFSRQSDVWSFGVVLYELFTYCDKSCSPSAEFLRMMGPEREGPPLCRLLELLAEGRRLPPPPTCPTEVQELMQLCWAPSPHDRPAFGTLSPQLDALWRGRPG
# Experimental: as §2
# JAK2_pSTAT5 was tesed in IL-3-induced BAF3 cells according to the above steps, and JAK3_pSTAT5 was tested in IL-2-induced CTLL-2 cells (without serum stimulation) according to the above steps.
# [5] = read-out: inhibition rate LRRK2
# Sequence of LRRK2 (Q5S007 whole entry): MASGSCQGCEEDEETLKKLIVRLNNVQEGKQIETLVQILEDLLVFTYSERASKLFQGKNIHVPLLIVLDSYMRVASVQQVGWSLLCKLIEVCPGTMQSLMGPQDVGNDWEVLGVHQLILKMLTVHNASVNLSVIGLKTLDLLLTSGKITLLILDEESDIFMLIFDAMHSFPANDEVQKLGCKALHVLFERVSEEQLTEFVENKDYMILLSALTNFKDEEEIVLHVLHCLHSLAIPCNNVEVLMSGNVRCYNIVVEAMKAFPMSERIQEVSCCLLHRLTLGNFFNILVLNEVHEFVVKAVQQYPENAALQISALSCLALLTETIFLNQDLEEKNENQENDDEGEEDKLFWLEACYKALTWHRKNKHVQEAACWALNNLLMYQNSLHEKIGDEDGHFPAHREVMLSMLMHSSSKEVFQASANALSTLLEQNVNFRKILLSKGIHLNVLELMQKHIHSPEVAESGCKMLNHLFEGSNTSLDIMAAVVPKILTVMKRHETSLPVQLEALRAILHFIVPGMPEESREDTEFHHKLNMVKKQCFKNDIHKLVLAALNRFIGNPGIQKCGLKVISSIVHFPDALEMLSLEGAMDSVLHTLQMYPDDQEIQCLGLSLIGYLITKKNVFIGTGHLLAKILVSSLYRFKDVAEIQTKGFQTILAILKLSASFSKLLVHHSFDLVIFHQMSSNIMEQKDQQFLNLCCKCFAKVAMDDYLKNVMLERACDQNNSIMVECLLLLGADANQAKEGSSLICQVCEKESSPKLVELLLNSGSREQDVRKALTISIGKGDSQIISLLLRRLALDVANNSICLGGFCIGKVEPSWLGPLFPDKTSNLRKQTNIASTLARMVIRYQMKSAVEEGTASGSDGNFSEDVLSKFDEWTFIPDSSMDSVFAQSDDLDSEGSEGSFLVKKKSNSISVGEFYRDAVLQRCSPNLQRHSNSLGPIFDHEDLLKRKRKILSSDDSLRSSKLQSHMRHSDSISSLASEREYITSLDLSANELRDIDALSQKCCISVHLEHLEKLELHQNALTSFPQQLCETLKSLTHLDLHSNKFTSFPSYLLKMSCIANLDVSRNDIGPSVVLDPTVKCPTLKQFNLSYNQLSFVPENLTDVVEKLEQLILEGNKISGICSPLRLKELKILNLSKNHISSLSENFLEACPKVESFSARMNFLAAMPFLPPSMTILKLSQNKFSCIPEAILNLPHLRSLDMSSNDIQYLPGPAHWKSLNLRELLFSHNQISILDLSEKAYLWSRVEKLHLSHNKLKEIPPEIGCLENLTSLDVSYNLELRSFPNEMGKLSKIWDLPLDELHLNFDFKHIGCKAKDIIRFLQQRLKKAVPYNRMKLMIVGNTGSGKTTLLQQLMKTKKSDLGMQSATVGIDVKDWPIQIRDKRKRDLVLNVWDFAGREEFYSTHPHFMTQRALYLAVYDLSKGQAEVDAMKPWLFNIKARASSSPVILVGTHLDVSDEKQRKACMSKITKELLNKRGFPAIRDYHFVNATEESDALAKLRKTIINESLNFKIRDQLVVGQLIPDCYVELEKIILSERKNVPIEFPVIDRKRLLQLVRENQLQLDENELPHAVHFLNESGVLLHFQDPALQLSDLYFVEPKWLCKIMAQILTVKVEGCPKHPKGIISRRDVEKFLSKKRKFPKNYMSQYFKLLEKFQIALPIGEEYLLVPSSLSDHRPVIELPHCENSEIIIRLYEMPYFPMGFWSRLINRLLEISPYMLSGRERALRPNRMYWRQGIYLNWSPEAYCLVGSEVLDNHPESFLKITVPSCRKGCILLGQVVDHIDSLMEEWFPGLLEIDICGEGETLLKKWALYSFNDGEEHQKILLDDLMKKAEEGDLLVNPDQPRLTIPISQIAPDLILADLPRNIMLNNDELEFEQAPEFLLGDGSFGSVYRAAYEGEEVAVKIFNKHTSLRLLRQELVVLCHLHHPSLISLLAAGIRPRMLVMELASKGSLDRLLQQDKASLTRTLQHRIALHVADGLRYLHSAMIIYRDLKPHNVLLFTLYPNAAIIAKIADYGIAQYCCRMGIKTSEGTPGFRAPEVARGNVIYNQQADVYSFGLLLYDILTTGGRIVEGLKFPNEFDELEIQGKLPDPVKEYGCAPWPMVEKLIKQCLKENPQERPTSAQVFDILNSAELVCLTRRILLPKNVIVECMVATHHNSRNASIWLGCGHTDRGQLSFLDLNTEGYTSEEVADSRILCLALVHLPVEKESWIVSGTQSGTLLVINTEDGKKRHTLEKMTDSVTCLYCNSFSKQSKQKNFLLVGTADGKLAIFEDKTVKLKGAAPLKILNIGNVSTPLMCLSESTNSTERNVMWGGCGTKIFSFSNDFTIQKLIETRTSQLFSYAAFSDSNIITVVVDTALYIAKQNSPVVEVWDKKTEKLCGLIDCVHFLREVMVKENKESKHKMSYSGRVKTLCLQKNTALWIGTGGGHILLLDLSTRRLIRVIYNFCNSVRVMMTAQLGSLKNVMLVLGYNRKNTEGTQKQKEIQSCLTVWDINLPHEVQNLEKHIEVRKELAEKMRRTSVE
# T1 sequence (P23458 whole entry): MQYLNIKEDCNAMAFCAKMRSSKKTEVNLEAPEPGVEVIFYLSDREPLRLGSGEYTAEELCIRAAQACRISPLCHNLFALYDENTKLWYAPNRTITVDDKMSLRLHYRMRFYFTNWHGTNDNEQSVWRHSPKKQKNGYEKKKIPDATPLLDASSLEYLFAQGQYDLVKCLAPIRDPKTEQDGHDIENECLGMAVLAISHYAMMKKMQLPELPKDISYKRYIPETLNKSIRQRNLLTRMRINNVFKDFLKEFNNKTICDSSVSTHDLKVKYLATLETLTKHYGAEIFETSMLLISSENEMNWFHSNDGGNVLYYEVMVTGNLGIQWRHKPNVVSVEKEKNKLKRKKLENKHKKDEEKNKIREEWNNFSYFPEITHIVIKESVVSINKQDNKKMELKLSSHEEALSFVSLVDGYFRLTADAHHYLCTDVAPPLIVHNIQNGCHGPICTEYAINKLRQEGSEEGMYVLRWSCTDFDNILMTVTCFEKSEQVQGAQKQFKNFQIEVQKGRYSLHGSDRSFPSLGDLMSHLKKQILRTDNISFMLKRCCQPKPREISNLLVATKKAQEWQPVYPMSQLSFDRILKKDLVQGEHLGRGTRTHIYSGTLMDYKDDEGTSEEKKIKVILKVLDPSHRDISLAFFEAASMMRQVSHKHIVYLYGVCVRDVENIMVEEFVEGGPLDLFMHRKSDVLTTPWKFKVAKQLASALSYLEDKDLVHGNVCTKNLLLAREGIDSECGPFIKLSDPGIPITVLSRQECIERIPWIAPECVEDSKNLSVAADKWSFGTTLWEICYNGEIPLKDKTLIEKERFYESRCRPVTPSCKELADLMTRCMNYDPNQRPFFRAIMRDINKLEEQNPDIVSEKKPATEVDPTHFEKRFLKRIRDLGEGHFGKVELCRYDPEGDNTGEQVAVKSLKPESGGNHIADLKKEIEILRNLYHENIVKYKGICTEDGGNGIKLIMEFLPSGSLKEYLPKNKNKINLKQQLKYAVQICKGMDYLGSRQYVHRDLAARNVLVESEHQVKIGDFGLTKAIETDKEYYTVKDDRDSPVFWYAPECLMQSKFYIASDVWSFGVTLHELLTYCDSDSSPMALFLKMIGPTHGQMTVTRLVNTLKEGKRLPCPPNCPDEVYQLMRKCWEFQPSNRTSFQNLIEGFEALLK
# Sequence of JAK2 (O60674 whole entry): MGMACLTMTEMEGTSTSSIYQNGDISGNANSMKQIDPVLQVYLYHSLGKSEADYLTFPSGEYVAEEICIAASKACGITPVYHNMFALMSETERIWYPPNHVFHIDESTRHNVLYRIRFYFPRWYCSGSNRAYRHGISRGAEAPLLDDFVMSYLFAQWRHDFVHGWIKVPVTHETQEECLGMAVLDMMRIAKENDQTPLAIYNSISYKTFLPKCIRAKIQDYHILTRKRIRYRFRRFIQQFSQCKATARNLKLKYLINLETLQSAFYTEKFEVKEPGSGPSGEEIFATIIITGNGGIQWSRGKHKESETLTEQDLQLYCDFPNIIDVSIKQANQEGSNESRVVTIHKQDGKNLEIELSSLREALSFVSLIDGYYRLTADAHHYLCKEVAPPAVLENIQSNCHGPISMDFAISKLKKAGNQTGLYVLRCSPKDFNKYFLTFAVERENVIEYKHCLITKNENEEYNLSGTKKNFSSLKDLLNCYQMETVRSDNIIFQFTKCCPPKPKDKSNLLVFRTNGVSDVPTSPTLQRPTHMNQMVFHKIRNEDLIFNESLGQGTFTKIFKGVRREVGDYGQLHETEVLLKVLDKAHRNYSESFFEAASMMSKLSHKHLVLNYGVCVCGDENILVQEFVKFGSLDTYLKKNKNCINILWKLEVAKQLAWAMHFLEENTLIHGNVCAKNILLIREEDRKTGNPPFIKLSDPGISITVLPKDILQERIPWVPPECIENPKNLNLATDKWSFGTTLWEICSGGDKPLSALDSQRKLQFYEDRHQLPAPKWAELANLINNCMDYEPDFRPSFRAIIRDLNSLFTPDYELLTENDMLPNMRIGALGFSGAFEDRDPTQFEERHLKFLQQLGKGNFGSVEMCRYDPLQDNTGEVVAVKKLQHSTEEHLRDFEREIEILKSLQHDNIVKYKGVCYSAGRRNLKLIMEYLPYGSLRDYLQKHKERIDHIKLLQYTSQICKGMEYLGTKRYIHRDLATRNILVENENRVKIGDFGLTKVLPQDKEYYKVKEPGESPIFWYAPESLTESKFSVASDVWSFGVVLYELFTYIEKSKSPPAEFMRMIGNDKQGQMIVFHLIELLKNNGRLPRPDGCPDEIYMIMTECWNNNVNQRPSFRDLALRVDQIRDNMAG
# T2 sequence (Q5S007 whole entry): as the sequence (Q5S007 whole entry) above
# T3 sequence (Q5S007 whole entry G2019S): as the sequence (Q5S007 whole entry) above, with G2019S counted along it
inhibition at 0.1 µM (JAK1 [1]; read-out: inhibition rate JAK1) [%],IC50 (JAK1 [1]) [nM],EC50 (JAK1 [2]) [nM],inhibition at 0.1 µM (LRRK2; [5]) [%],IC50 (LRRK2) [nM],inhibition at 0.01 µM (JAK2) [%],inhibition at 0.1 µM (JAK2) [%],IC50 (JAK2) [nM],EC50 (wild-type LRRK2) [nM],inhibition at 0.01 µM (TYK2) [%],EC50 (LRRK2 (G2019S)) [nM],inhibition at 0.01 µM (JAK3 [3]) [%],"inhibition at 0.01 µM (LRRK2; at 10 nM, read-out: inhibition rate LRRK2) [%]","inhibition at 0.01 µM (JAK1 [1]; at 10 nM, read-out: inhibition rate JAK1) [%]",EC50 (JAK3 [4]) [nM],Compound
> 80,< 50,< 50,> 80,< 50,40 to 79,> 80,< 50,< 500,–,–,–,–,–,–,"CN1CCOc2ccc(Nc3nc(-c4ccc(C(=O)NCC#N)cc4)c4cc[nH]c4n3)cc2OCC1 [Example 2, N-(cyanomethyl)-4-(2-((4-methyl-3,4,5,6-tetrahydro-2H-benzo[b][1,4,7]dioxazolin-9-yl)amino)-7H-pyrrolo[2,3-d]pyrimidin-4-yl)benzamide]"
–,–,–,–,< 50,> 80,–,–,< 500,40 to 79,< 500,> 80,> 80,–,–,"CN1CCOc2ccc(Nc3nc(Nc4ccccc4P(C)(C)=O)c4cc[nH]c4n3)cc2OCC1 [Example 73, dimethyl(2-((2-((4-methyl-3,4,5,6-tetrahydro-2H-benzo[b][1,4,7]dioxazolin-9-yl)amino)-7H-pyrrolo[2,3-d]pyrimidin-4-yl)amino)phenyl)phosphine oxide]"
> 80,< 50,< 50,> 80,< 50,> 80,> 80,< 50,–,–,–,–,–,40 to 79,< 50,"CN1CCOc2ccc(Nc3nc(-c4cnn(C(CC#N)C5CCCC5)c4)c4cc[nH]c4n3)cc2OCC1 (centres unmarked) [Example 27, 3-cyclopentyl-3-(4-(2-((4-methyl-3,4,5,6-tetrahydro-2H-benzo[b][1,4,7]dioxazolin-9-yl)amino)-7H-pyrrolo[2,3-d]pyrimidin-4-yl)-1H-pyrazol-1-yl)propanenitrile]"
